According to US5376634A, “Polypeptide compound and a process for preparation thereof” (Fujisawa Pharmaceutical Co., Ltd., priority 1990, dated 1994):
Starred links: 1 amine or outer side, 2 acyl side, 3 side chain; linkers in the order of their positions; H or OH if unused. Positions of bridges follow the written chain, without caps; N, C: chain ends. Non-standard residues stand in square brackets, D forms with d. Residues, ends and D or L forms follow the SMILES beside them. *: point of attachment. hTyr(3S-OH,4S-OH,3'-OSO3H) = N[C@H](C(=O)O)[C@H](O)[C@@H](O)c1ccc(O)c(OS(=O)(=O)O)c1; Orn(4R-OH,5S-OH) = O=C([C@H](C[C@@H](O)[C@H](O)N[*:3])N[*:1])[*:2]; Pro(3S-OH,4S-Me) = C[C@H]1CN[C@H](C(=O)O)[C@H]1O; Benzoyl(4-octyloxy) = CCCCCCCCOc1ccc(C(=O)*)cc1; Gln(3R-OH) = NC(=O)C[C@@H](O)[C@H](N)C(=O)O; Hyp = O=C(O)[C@@H]1C[C@@H](O)CN1

Key:
ICR mice = experiment: Acute toxicity, single intravenous injection; assay type: in vivo; conditions: ICR mice (female, 4 weeks old), dose of 500 mg/kg
Method: The acute toxicity of the FR131535 substance was determined to ICR mice (female, 4 weeks old) by a single intravenous injection.

[1] = Solubility (physico-chemical properties); assay type: physicochemical

Compound: CCCCCCCCOc1ccc(C(=O)N[C@H]2C[C@@H](O)[C@H](O)NC(=O)[C@@H]3[C@@H](O)[C@@H](C)CN3C(=O)[C@H]([C@H](O)CC(N)=O)NC(=O)[C@H]([C@H](O)[C@@H](O)c3ccc(O)c(OS(=O)(=O)O)c3)NC(=O)[C@@H]3C[C@@H](O)CN3C(=O)[C@H]([C@@H](C)O)NC2=O)cc1 [FR131535] ({Benzoyl(4-octyloxy)}-[Orn(4R-OH,5S-OH)]T[Hyp][hTyr(3S-OH,4S-OH,3'-OSO3H)][Gln(3R-OH)][Pro(3S-OH,4S-Me)]; lactam 1-C)
- acute toxicity (ICR mice): No toxic symptom was observed
- Solubility ([1]; acetone): slightly soluble
- Solubility ([1]; methanol): soluble
- Solubility ([1]; n-hexane): insoluble
- Solubility ([1]; water): soluble
